Measured values taken from article PMC7777204, “Locking mixed-lineage kinase domain-like protein in its auto-inhibited state prevents necroptosis” (Proceedings of the National Academy of Sciences of the …, 2020).

Key:
[1] = molecular target: T1, human MLKL executioner domain (WT) (Homo sapiens, UniProt Q8NB16); assay: Functional NMR assay (detachment of α-helix 6), WT; assay type: biochemical; settings: WT
T1 construct: 80 µM MLKL N-terminal executioner domain (residues 1 to 154) was used; GST (thrombin cleavage site) (cleaved yes)
T1 sequence (Q8NB16 1-154): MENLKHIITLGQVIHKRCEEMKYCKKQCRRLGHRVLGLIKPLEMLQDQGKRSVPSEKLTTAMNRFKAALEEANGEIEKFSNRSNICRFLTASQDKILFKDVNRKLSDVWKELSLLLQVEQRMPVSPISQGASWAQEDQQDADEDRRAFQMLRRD
Excerpt: To test the significance of the additional interaction between α-helix 6 and the four-helix bundle provided by the xanthine compounds stacking to the phenyl ring of Phe148, we used a described functional NMR assay ([12]). Binding of phytic acid (IP6) and the detergent β-D-nonylmaltoside (NM) led to the detachment of α-helix 6, which can be monitored in ^1H,^15N-correlation spectra by the altered chemical shift of the Hε1–Nε1 correlation of Trp133 and the backbone N–H correlation of Ala141 ([12]). […] Adding 12 mM NM or 500 µM IP6 led to the appearance of a second very weak peak reporting on the detached α-helix 6 with a population of the activated state (pact) of 1% and 4%, respectively (Fig. 3). […] Combining 12 mM NM and 500 µM IP6 induced a dramatic increase of the population of the detached state (pact 86%). […] To further validate the importance of the π–π stacking interaction between the xanthine and Phe148 in α-helix 6, we carried out the functional NMR assay with the F148A-mutated variant of MLKL. The removal of the phenyl group induced significant CSPs localized in close proximity to the mutation site, due to the removal of ring currents and, therefore, strong electronic changes. […] MLKL F148A was more sensitive to the addition of 12 mM NM, 500 µM IP6, or the combination thereof. In the spectra in the presence of NM and the combination of NM and IP6, a third Trp133 peak appeared, most likely reporting on a state similar to the active state. […] Thus, the stacking interaction of the xanthine core to Phe148 is vital for the inhibitory activity of these MLKL inhibitors.
Fig. 3. (A and B) The region of the NMR ^1H,^15N-correlation spectra of the MLKL executioner domain (protein concentration: 80 µM) containing the cross-peaks of Trp133 Nε1–Hε1 in the auto-inhibited state where α-helix 6 is attached to the four-helix bundle (inact. state) and in the active, detached state (act. state) are shown. The unliganded state is depicted in black, with 12 mM NM in cyan; 500 µM IP6 in orange; 500 µM Cpd 3 in blue; 12 mM NM and 500 µM IP6 in red; and 12 mM NM, 500 µM IP6, and 500 µM Cpd 3 in green. The spectra depicted in A are measured with the WT protein and in B with the F148A variant. […] Dark gray bars correspond to the WT, while light gray bars correspond to the F148A variant. The asterisk means that no active conformation could be detected. Double asterisks indicate data not determined.
For the functional NMR assay ^1H,^15N-correlation spectra were recorded on a Bruker Avance III HD 600-MHz NMR spectrometer equipped with a cryogenic QCI probe in 2.5-mm NMR tubes at 298 K. Spectra were recorded with 64 complex points in the indirect dimension, 96 scans, and an interscan delay of 2 s. For the samples, 80 µM MLKL N-terminal executioner domain (residues 1 to 154) was used in a 20 mM sodium phosphate buffer at pH 7.5 containing 150 mM sodium chloride and 1 mM TCEP. For the different conditions, either 500 µM IP6, 12 mM NM, or a combination of the two were used. The xanthine compounds were tested at 500 µM, while NSA, due to limited solubility, was tested only at 200 µM, which is sufficient to saturate MLKL. Spectra were analyzed, and peaks were integrated in CcpNnmr analysis ([39]).

[2] = molecular target: T2, MLKL executioner domain (Homo sapiens, UniProt Q8NB16); assay: Real-time NMR of MLKL oligomerization; assay type: biochemical; settings: after 48 h, 50 µM IP6, 12 mM NM, 500 µM Cpd 3, 300 µM MLKL, 298 K
T2 construct: 80 µM MLKL N-terminal executioner domain (residues 1 to 154) was used; GST (thrombin cleavage site) (cleaved yes)
T2 sequence (Q8NB16 1-154): T1 sequence (Q8NB16 1-154)
Method: While MLKL was stable in the presence of either 500 µM IP6 or 12 mM NM (SI Appendix, Fig. S13), dispersed peaks were disappearing over time in the presence of the combination of the two. Monitoring this decay by real-time NMR, a series of ^1H,^15N-correlation spectra were recorded in the presence of 12 mM NM and 50 µM IP6. The latter concentration was reduced to slow down the process to enable real-time NMR detection, because at 500 µM IP6 concentration, 86% activation could be observed in the functional assay in the ^1H,^15N-correlation spectrum measured directly after sample preparation. The loss of peak intensity can be fitted with a biexponential decay with a fast time constant (Tf) of 0.35 ± 0.07 h and a slow time constant (Ts) of 10.0 ± 1.0 h. […] In addition to the known peaks reporting on the active state with α-helix 6 being detached (Ala141 N,H and Trp133 Nε1,Hε1), peaks in the random coil region of the spectrum appeared (Fig. 4A). […] Secondary chemical shifts confirmed that α-helix 6 becomes largely unfolded and has, according to ^15N-relaxation data, increased mobility (τC = 10 ns) and reduced rigidity (heteronuclear NOE around zero) in the activated state (SI Appendix, Fig. S10).
After 48 h, these signals decayed only to ∼70% intensity. Cross-peaks reporting on the unfolded, detached α-helix 6 likewise appeared more slowly in the presence of Cpd 3 (Fig. 4 B–D). […]

Population of the activated state (pact), α-helix 6 detached ([1]; 80 µM protein, 12 mM NM + 500 µM IP6 + 500 µM compound, without compound pact 86%): 19% | Induction of the active state by compound alone ([1]; compound alone (Cpd 3 500 µM, NSA 200 µM), no NM/IP6): did not induce the active state | Remaining intensity of dispersed signals [2]: ~70%
SMILES: Cn1c(=O)c2c(nc(S(C)(=O)=O)n2C)n(CC#Cc2cccc(O)c2)c1=O [Cpd 3]
